From patent US9486506B2 (Novo Nordisk A/S, priority 2011, dated 2016)
Each block holds one compound with its values, some of them ahead of it. Numbered stars: 1 amine (or outer) side, 2 acyl side, 3 side chain; on linkers, the order of the positions; unused ones are H or OH. Side chains are listed from the residue outwards. Peptide text beside a SMILES is read from it. * marks the point of attachment. C18 diacid = O=C(O)CCCCCCCCCCCCCCCCC(=O)*; γGlu = O=C(O)[C@H](CCC(=O)[*:2])N[*:1]; AEEA = NCCOCCOCC(=O)O

How the values were obtained:
[1] = molecular target: T1, glucagon receptor (Homo sapiens, UniProt P47871); test: Assay (I) Glucagon activity (cAMP biosensor, FLIPR); type: cell-based
T1 construct: expressed in transfected cells
T1 sequence (P47871 26-477): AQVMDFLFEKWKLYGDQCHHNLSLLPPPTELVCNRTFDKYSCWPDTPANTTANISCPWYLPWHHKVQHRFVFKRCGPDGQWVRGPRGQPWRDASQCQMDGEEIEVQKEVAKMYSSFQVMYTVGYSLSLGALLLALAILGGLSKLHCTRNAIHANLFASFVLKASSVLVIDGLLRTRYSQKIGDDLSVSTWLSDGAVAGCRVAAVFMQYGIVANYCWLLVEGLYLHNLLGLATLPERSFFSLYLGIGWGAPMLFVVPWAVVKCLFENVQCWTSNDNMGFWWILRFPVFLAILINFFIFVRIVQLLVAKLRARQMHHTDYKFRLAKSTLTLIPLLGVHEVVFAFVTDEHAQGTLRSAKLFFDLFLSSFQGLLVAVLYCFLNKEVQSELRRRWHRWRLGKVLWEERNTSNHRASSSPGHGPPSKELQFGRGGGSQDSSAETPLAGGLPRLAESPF

[2] = Assay (X) Chemical stability assessment by RP-UPLC; type: physicochemical; details: pH 8.15, 14 days at 37° C. vs 5° C., 333 μM
Experimental: Chemical Stability Assessment
Lyophilized samples were dissolved in buffer (see below for detailed compositions) to a final concentration of 333 μM and a pH of 8.15, and were incubated for 14 days at 5° C. and 37° C. followed by RP-UPLC analysis. Purity was defined as the area percentage of the main peak in relation to the total area of all integrated peaks in each chromatogram. Purity loss after 14 days at 37° C. was determined as the difference in purity between the samples incubated at 5° C. and 37° C., divided by the purity of the sample after incubation for 14 days at 5° C.
RP-UPLC analysis was performed using a Waters BEH130 2.1 mm×150 mm, 1.7 μm column operated at 50° C. and a flow rate of 0.4 mL/min using a mobile phase system consisting of typically A: 50 mM Phosphate, 10 w/w % Acetonitrile pH 3 and B: 80 v/v Acetonitrile. UV-detection was performed at 215 nm. The typical gradient profile used for most of the samples is shown below.
For some individual analogues eluting at substantially different retention times compared with the majority of analogues, some adjustments to the gradient profile were made to better enable purity assessment comparison across samples. Also the composition of the channel B mobile phase component was in some of the analyses exchanged for a 90 v/v % Acetonitrile solvent solution in an attempt to better handle carry-over of material from one injection to the next in the sequence. This was however compensated for by recalculating the gradient profile appropriately.
Buffer: • 50 mM Dinatriumphosphatdihydrat • 184 mM Propylenglycol • 58 mM Phenol • pH adjusted to 8.15 with H3PO4. In cases where pH was adjusted to 8.15 after re-suspension of analogues, 0.2 M NaOH was used. Assay (XI) Pharmacokinetic Study in Minipigs

Compound: CC(C)C[C@H](NC(=O)[C@H](CC(=O)O)NC(=O)[C@H](CC(C)C)NC(=O)[C@H](Cc1ccc(O)cc1)NC(=O)[C@H](CCCCN)NC(=O)[C@H](CO)NC(=O)[C@H](Cc1ccc(O)cc1)NC(=O)[C@H](CC(=O)O)NC(=O)[C@H](CO)NC(=O)[C@@H](NC(=O)[C@H](Cc1ccccc1)NC(=O)[C@@H](NC(=O)CNC(=O)[C@H](CCC(N)=O)NC(=O)[C@H](CO)NC(=O)[C@@H](N)Cc1c[nH]cn1)[C@@H](C)O)[C@@H](C)O)C(=O)N[C@@H](CCCNC(=N)N)C(=O)N[C@@H](CCCNC(=N)N)C(=O)N[C@@H](C)C(=O)N[C@@H](CCC(N)=O)C(=O)N[C@@H](CC(=O)O)C(=O)N[C@@H](Cc1ccccc1)C(=O)N[C@H](C(=O)N[C@@H](CCCCNC(=O)CC[C@H](NC(=O)CC[C@H](NC(=O)CC[C@H](NC(=O)CC[C@H](NC(=O)CCCCCCCCCCCCCCCCC(=O)O)C(=O)O)C(=O)O)C(=O)O)C(=O)O)C(=O)N[C@@H](Cc1c[nH]c2ccccc12)C(=O)N[C@@H](CC(C)C)C(=O)N[C@@H](CC(C)C)C(=O)N[C@@H](CO)C(=O)N[C@H](C(N)=O)[C@@H](C)O)C(C)C [Example 77, N^ε24-[(4S)-4-carboxy-4-[[(4S)-4-carboxy-4-[[(4S)-4-carboxy-4-[[(4S)-4-carboxy-4-(17-carboxyheptadecanoylamino)butanoyl]amino]butanoyl]amino]butanoyl]amino]butanoyl]-[Leu16,Lys24,Leu27,Ser28]-Glucagon amide]
EC50 [1]: 0.812 nM
Chemical stability [Purity loss/14 days 37 C.] [2]: 4.1%

Compound: CC[C@H](C)[C@H](NC(=O)[C@H](CC(=O)O)NC(=O)[C@H](CC(C)C)NC(=O)[C@H](Cc1ccc(O)cc1)NC(=O)[C@H](CCCCN)NC(=O)[C@H](CO)NC(=O)[C@H](Cc1ccc(O)cc1)NC(=O)[C@H](CC(=O)O)NC(=O)[C@H](CO)NC(=O)[C@@H](NC(=O)[C@H](Cc1ccccc1)NC(=O)[C@@H](NC(=O)CNC(=O)[C@H](CCC(N)=O)NC(=O)[C@H](CO)NC(=O)[C@@H](N)Cc1c[nH]cn1)[C@@H](C)O)[C@@H](C)O)C(=O)N[C@@H](CCCNC(=N)N)C(=O)N[C@@H](CCCNC(=N)N)C(=O)N[C@@H](C)C(=O)N[C@@H](CCC(N)=O)C(=O)N[C@@H](CC(=O)O)C(=O)N[C@@H](Cc1ccccc1)C(=O)N[C@H](C(=O)N[C@@H](CCCCNC(=O)CC[C@H](NC(=O)CC[C@H](NC(=O)CC[C@H](NC(=O)CC[C@H](NC(=O)CCCCCCCCCCCCCCCCC(=O)O)C(=O)O)C(=O)O)C(=O)O)C(=O)O)C(=O)N[C@@H](Cc1c[nH]c2ccccc12)C(=O)N[C@@H](CC(C)C)C(=O)N[C@@H](CC(C)C)C(=O)N[C@@H](CO)C(=O)N[C@H](C(N)=O)[C@@H](C)O)C(C)C [Example 75, N^ε24-[(4S)-4-carboxy-4-[[(4S)-4-carboxy-4-[[(4S)-4-carboxy-4-[[(4S)-4-carboxy-4-(17-carboxyheptadecanoylamino)butanoyl]amino]butanoyl]amino]butanoyl]amino]butanoyl]-[Ile16,Lys24,Leu27,Ser28]-Glucagon amide]
EC50 [1]: 0.402 nM
Chemical stability [Purity loss/14 days 37 C.] [2]: 3.6%

Compound: CC(C)C[C@H](NC(=O)[C@H](CC(=O)O)NC(=O)[C@H](CC(C)C)NC(=O)[C@H](Cc1ccc(O)cc1)NC(=O)[C@H](CCCCN)NC(=O)[C@H](CO)NC(=O)[C@H](Cc1ccc(O)cc1)NC(=O)[C@H](CC(=O)O)NC(=O)[C@H](CO)NC(=O)[C@@H](NC(=O)[C@H](Cc1ccccc1)NC(=O)[C@@H](NC(=O)CNC(=O)[C@H](CCC(N)=O)NC(=O)[C@H](CO)NC(=O)[C@@H](N)Cc1c[nH]cn1)[C@@H](C)O)[C@@H](C)O)C(=O)N[C@@H](CCCNC(=N)N)C(=O)N[C@@H](CCCNC(=N)N)C(=O)N[C@@H](C)C(=O)N[C@@H](CCC(N)=O)C(=O)N[C@@H](CC(=O)O)C(=O)N[C@@H](Cc1ccccc1)C(=O)N[C@H](C(=O)N[C@@H](CCCCNC(=O)CC[C@H](NC(=O)CC[C@H](NC(=O)COCCOCCNC(=O)COCCOCCNC(=O)CC[C@H](NC(=O)CCCCCCCCCCCCCCC(=O)O)C(=O)O)C(=O)O)C(=O)O)C(=O)N[C@@H](Cc1c[nH]c2ccccc12)C(=O)N[C@@H](CC(C)C)C(=O)N[C@@H](CC(C)C)C(=O)N[C@@H](CO)C(=O)N[C@H](C(=O)O)[C@@H](C)O)C(C)C [Example 85, N^ε24-[(4S)-4-carboxy-4-[[(4S)-4-carboxy-4-[[2-[2-[2-[[2-[2-[2-[[(4S)-4-carboxy-4-(15-carboxypentadecanoylamino)butanoyl]amino]ethoxy]ethoxy]acetyl]amino]ethoxy]ethoxy]acetyl]amino]butanoyl]amino]butanoyl]-[Leu16,Lys24,Leu27,Ser28]-Glucagon]
EC50 [1]: 0.039 nM
Chemical stability [Purity loss/14 days 37 C.] [2]: 7.4%

Compound: CC(C)C[C@H](NC(=O)[C@H](Cc1c[nH]c2ccccc12)NC(=O)[C@H](CCCCNC(=O)CC[C@H](NC(=O)CC[C@H](NC(=O)COCCOCCNC(=O)COCCOCCNC(=O)CC[C@H](NC(=O)CCCCCCCCCCCCCCCCC(=O)O)C(=O)O)C(=O)O)C(=O)O)NC(=O)[C@@H](NC(=O)[C@H](Cc1ccccc1)NC(=O)[C@H](CC(=O)O)NC(=O)[C@H](CCC(N)=O)NC(=O)[C@H](C)NC(=O)[C@H](CCCNC(=N)N)NC(=O)[C@H](CCCNC(=N)N)NC(=O)[C@@H](NC(=O)[C@H](CC(=O)O)NC(=O)[C@H](CC(C)C)NC(=O)[C@H](Cc1ccc(O)cc1)NC(=O)[C@H](CCCNC(=N)N)NC(=O)[C@H](CO)NC(=O)[C@H](Cc1ccc(O)cc1)NC(=O)[C@H](CC(=O)O)NC(=O)[C@H](CO)NC(=O)[C@@H](NC(=O)[C@H](Cc1ccccc1)NC(=O)[C@@H](NC(=O)CNC(=O)[C@H](CCC(N)=O)NC(=O)[C@H](CO)NC(=O)[C@@H](N)Cc1c[nH]cn1)[C@@H](C)O)[C@@H](C)O)C(C)C)C(C)C)C(=O)N[C@@H](CC(C)C)C(=O)N[C@@H](CO)C(=O)N[C@H](C(=O)O)[C@@H](C)O [Example 21, N^ε24-[(4S)-4-carboxy-4-[[(4S)-4-carboxy-4-[[2-[2-[2-[[2-[2-[2-[[(4S)-4-carboxy-4-(17-carboxyheptadecanoylamino)butanoyl]amino]ethoxy]ethoxy]acetyl]amino]ethoxy]ethoxy]acetyl]amino]butanoyl]amino]butanoyl]-[Arg^12,Val^16,Lys^24,Leu^27,Ser^28]-Glucagon] (H-HSQGTFTSDYSRYLDVRRAQDFVK([γGlu-γGlu-AEEA-AEEA-γGlu-C18 diacid])WLLST-OH)
EC50 [1]: 1.32 nM
Chemical stability [Purity loss/14 days 37 C.] [2]: 2.9%

Chemical stability [Purity loss/14 days 37 C.] [2]: 8.6%
Compound: CC(C)C[C@H](NC(=O)[C@H](Cc1ccc(O)cc1)NC(=O)[C@H](CCCNC(=N)N)NC(=O)[C@H](CO)NC(=O)[C@H](Cc1ccc(O)cc1)NC(=O)[C@H](CC(=O)O)NC(=O)[C@H](CO)NC(=O)[C@@H](NC(=O)[C@H](Cc1ccccc1)NC(=O)[C@@H](NC(=O)CNC(=O)[C@H](CCC(N)=O)NC(=O)[C@H](CO)NC(=O)[C@@H](N)Cc1c[nH]cn1)[C@@H](C)O)[C@@H](C)O)C(=O)N[C@@H](CCC(=O)O)C(=O)N[C@@H](CO)C(=O)N[C@@H](CCCNC(=N)N)C(=O)N[C@@H](CCCNC(=N)N)C(=O)N[C@@H](C)C(=O)N[C@@H](CCC(N)=O)C(=O)N[C@@H](CC(=O)O)C(=O)N[C@@H](Cc1ccccc1)C(=O)N[C@H](C(=O)N[C@@H](CCCCNC(=O)CC[C@H](NC(=O)CC[C@H](NC(=O)COCCOCCNC(=O)COCCOCCNC(=O)CC[C@H](NC(=O)CCCCCCCCCCCCCCCCC(=O)O)C(=O)O)C(=O)O)C(=O)O)C(=O)N[C@@H](Cc1c[nH]c2ccccc12)C(=O)N[C@@H](CC(C)C)C(=O)N[C@@H](CC(C)C)C(=O)N[C@@H](CO)C(=O)N[C@H](C(=O)O)[C@@H](C)O)C(C)C [Example 14, N^ε24-[(4S)-4-carboxy-4-[[(4S)-4-carboxy-4-[[2-[2-[2-[[2-[2-[2-[[(4S)-4-carboxy-4-(17-carboxyheptadecanoylamino)butanoyl]amino]ethoxy]ethoxy]acetyl]amino]ethoxy]ethoxy]acetyl]amino]butanoyl]amino]butanoyl]-[Arg^12,Glu^15,Lys^24,Leu^27,Ser^25]-Glucagon] (H-HSQGTFTSDYSRYLESRRAQDFVK([γGlu-γGlu-AEEA-AEEA-γGlu-C18 diacid])WLLST-OH; N-terminus and C-terminus assumed)
